Each substance was assayed on TCR27-AKD10R3 cells (assay: X-scan (peptide scan), EGFP reporter effector cells). Conditions: Fig. 1c source data, HLA B*07, T2 cells pulsed with 25 μg peptide per 1 × 10^6 cells, 2 h, 37 °C, effector cells 2:1 overnight, mean value of triplicate.
Type: cell-based, murine
Method: Tap-deficient T2 (174x CEM.T2) HLA-B*0702+ cells were received from Dr. Victor Engelhard. These and the commercially purchased Tap-deficient T2 (174 x CEM.T2) cells (ATCC CRL 1991) were maintained in RPMI 1640 (BioConcept) supplemented with 10% fetal calf serum (FCS, HyClone), 2mM L-glutamine and 1% Penicillin/Streptomycin at 37 °C and 5% CO2. The EGFP reporter cell line was based on a murine TCR negative thymoma cell line derived from strain BW5417 (ATCC®TIB-47TM) and was stably transduced with (a) TCR27 in which the human constant regions were replaced with those of mouse, (b) a chimeric mouse/human CD8, and (c) an EGFP reporter construct linked to a minimal IL-2 promoter comprising three NFAT-binding sites (3xNFAT)[44]. The transduced cells were termed TCR27-AKD10R3 cells and will be called the effector cells. Mouse cell lines were cultured in SF-IMDM (BioConcept) supplemented with 3% FCS, 1% Penicillin/Streptomycin, and 50 μM beta-mercaptoethanol at 37 °C and 10% CO2.
Peptides were dissolved in dimethyl sulfoxide (DMSO) at concentrations of 2–20 mg/mL, aliquoted and stored at −80 °C. Peptide-pulsing experiments were performed by pre-incubating T2 cells with 25 μg peptide per 1 × 10^6 cells in PBS for 2 h at 37 °C and 5% CO2, washed three times to remove unbound peptides and used for further downstream analysis. Peptide-pulsed T2 cells were incubated with effector cells in a 2:1 ratio overnight in SF-IMDM at 37 °C and 10% CO2, washed twice and stained with anti-mouse TCR-® chain clone H57-597 (BD Pharmingen #560656, 1:500) for 30 min at RT. Cells were washed twice before FACS-analysis using a BD FACS Canto II with System software v2.0. Data analysis was performed using FlowJo V10 Software. Binding affinity between each peptide and HLA-B*0702 was determined using an Alpha assay. It is a homogenous, proximity-based assay for detection of peptides binding to HLA class I molecules using a conformation-dependent anti-HLA class I antibody, W6/32, as one tag and a biotinylated recombinant HLA class I molecule as the other tag, and a proximity-based signal was generated through the luminescent oxygen channeling immunoassay technology (PerkinElmer) as described.
To identify the off-target peptides we have utilized an approach that was developed previously. In brief, we investigated which amino acids at each position in pMLL747–755 enable TCR interaction by sequentially replacing every amino acid position outside of the anchor positions 2 and 9 with all 19 alternative amino acids, resulting in 134 peptides (133 altered peptides plus original epitope). Each peptide was individually evaluated using cell-based in vitro cytotoxicity assay. To represent the TCR recognition kernel, we have defined Position Weight Matrices (PWMs) for each assay by assigning normalized measurements to each of the 20 amino acids in each position. To predict potential off-target peptides, we applied an algorithm projecting the PWM-defined kernel into the human proteome, scoring TCR27 recognition for the predicted HLA-B^*0702 binding 9-mer peptides. Of the 11 peptides with highest predicted cross-reactivity scores, we confirmed that only 2, […] and pDOT1L998–1006, strongly activated the TCR27-expressing effector T cells.

| Substance | Percentage GFP positive from TCR+ cells |
| --- | --- |
| APRsPSHSM [single-residue substitution of pMLL747–755, Pos 1] | 1.5% |
| CPRsPSHSM [single-residue substitution of pMLL747–755, Pos 1] | 1.3% |
| DPRsPSHSM [single-residue substitution of pMLL747–755, Pos 1] | 1.14% |
| EPAsPSHSM [single-residue substitution of pMLL747–755, Pos 3] | 14.3% |
| EPCsPSHSM [single-residue substitution of pMLL747–755, Pos 3] | 9.53% |
| EPDsPSHSM [single-residue substitution of pMLL747–755, Pos 3] | 1.12% |
| EPEsPSHSM [single-residue substitution of pMLL747–755, Pos 3] | 2.7% |
| EPFsPSHSM [single-residue substitution of pMLL747–755, Pos 3] | 1.13% |
| EPGsPSHSM [single-residue substitution of pMLL747–755, Pos 3] | 1.47% |
| EPHsPSHSM [single-residue substitution of pMLL747–755, Pos 3] | 5.91% |
| EPIsPSHSM [single-residue substitution of pMLL747–755, Pos 3] | 1.83% |
| EPKsPSHSM [single-residue substitution of pMLL747–755, Pos 3] | 10.3% |
| EPLsPSHSM [single-residue substitution of pMLL747–755, Pos 3] | 1.35% |
| EPMsPSHSM [single-residue substitution of pMLL747–755, Pos 3] | 1.48% |
| EPNsPSHSM [single-residue substitution of pMLL747–755, Pos 3] | 5% |
| EPPsPSHSM [single-residue substitution of pMLL747–755, Pos 3] | 1% |

| Substance | Percentage GFP positive from TCR+ cells |
| --- | --- |
| EPQsPSHSM [single-residue substitution of pMLL747–755, Pos 3] | 1.31% |
| EPRAPSHSM [single-residue substitution of pMLL747–755, Pos 4] | 0.88% |
| EPRCPSHSM [pMLL747–755 with cysteine at Pos 4] | 1.02% |
| EPRDPSHSM [pMLL747–755 with aspartate at P4] | 0.92% |
| EPREPSHSM [pMLL747–755 with glutamate at P4] | 0.77% |
| EPRFPSHSM [single-residue substitution of pMLL747–755, Pos 4] | 0.91% |
| EPRGPSHSM [single-residue substitution of pMLL747–755, Pos 4] | 1.01% |
| EPRHPSHSM [single-residue substitution of pMLL747–755, Pos 4] | 0.9% |
| EPRIPSHSM [single-residue substitution of pMLL747–755, Pos 4] | 0.86% |
| EPRKPSHSM [single-residue substitution of pMLL747–755, Pos 4] | 1.03% |
| EPRLPSHSM [single-residue substitution of pMLL747–755, Pos 4] | 1.21% |
| EPRMPSHSM [single-residue substitution of pMLL747–755, Pos 4] | 1.25% |
| EPRNPSHSM [single-residue substitution of pMLL747–755, Pos 4] | 1.07% |
| EPRPPSHSM [single-residue substitution of pMLL747–755, Pos 4] | 1.21% |
| EPRQPSHSM [single-residue substitution of pMLL747–755, Pos 4] | 1.08% |
